Reference: patent EP4660185A1, “NAV1.7- AND/OR NAV1.8-INHIBITING AMIDES, PROCESSES FOR THE PREPARATION THEREOF, COMPOSITIONS, USES, METHODS FOR TREATMENT USING SAME, AND KITS” (Eurofarma Laboratórios S.A., priority 2023, dated 2024)

Experiments:
[1] = biological target: T1, human sodium channels Nav 1.7 (Homo sapiens, UniProt Q15858); experiment: Automated whole-cell voltage-clamp (ScreenPatch 384P) sodium current block, Nav 1.7; type: cell-based; details: CHO cells stably expressing human Nav 1.7; holding -100 mV, inactivation step -40 mV for 8 seconds, test step 0 mV (TP1A); exposure at least five minutes, room temperature; mean where tested in two or more assays; read-out: Nav1.7 IC50
T1 construct: expressed in transfected cells
Method: (§1) Biological assays were performed on Chinese hamster ovary (CHO) cells that express human sodium channels Nav 1.8 or Nav 1.7 in a stable manner.
(§2) The experimental protocol voltage-clamp using the whole cell configuration was established on the automated ScreenPatch® 384P platform (SP384PE, Nanion Technologies, Livingston, NJ) and the results were recorded with a Nanion 384-well Patch Clamp chip (NPC) (Nanion Technologies, Livingston, NJ).
(§3) Compounds of Formula Ia and Formula Ib were diluted in eight concentrations in the extracellular solution composed of saline solution, buffered with HEPES (mM): NaCl, 137; KCl, 4; CaCl2, 3,8; MgCl2, 1; HEPES, 10; Glucose, 10; pH 7.4. The […], 50; CsF, 90; MgCl2, 5; EGTA, 5; HEPES, 10; pH 7.2. The duration of exposure of each compound with cells expressing Nav 1.7 or Nav 1.8 was at least five minutes, and the assays were performed at room temperature.
(§4) The measurements of the sodium currents of Nav 1.8 and Nav 1.7 were obtained using the voltage protocol described below: A holding voltage of -100 mV was established followed by an inactivation voltage step at -40 mV for 8 seconds, followed by a step of -100 mV for 20 ms, followed by a 20 ms step for 10 mV for Nav 1.8 or 0 mV for Nav 1.7 (TP1A) before returning to the holding voltage of -100 mV.
(§5) The protocol was repeated at a frequency of 0.05 Hz and the amplitude of the current was quantified throughout the recording of the TP1A phase. The variation in the amplitude of the peak current was evaluated according to the formula described below, after exposing the cells expressing the channels to each concentration of the different compounds: % Block = (1−(ITP1A,molecule/ITP1A,basal)×100%, [formula] wherein ITP1A,basal and ITP1A,molecule represent the peaks of sodium current input into TP1A before exposure to the compound and in the presence of the compound, respectively.
(§6) Data were obtained by nonlinear regression (nonlinear least squares) with XLfit for Excel (Microsoft, Redmond, WA).
(§7) The compounds were tested in at least one assay to obtain the value of CI50. For compounds that were tested in two or more assays, the results are described as the mean of the CI50 values.

[2] = biological target: T2, human sodium channels Nav 1.8 (Homo sapiens, UniProt Q9Y5Y9); experiment: Automated whole-cell voltage-clamp (ScreenPatch 384P) sodium current block, Nav 1.8; type: cell-based; details: CHO cells stably expressing human Nav 1.8; holding -100 mV, inactivation step -40 mV for 8 seconds, test step 10 mV (TP1A); exposure at least five minutes, room temperature; mean where tested in two or more assays; read-out: Nav1.8 IC50
T2 construct: expressed in transfected cells
Method: as §1, §2, §3, §4, §5, §6, §7

T2 sequence (Q9Y5Y9 whole entry): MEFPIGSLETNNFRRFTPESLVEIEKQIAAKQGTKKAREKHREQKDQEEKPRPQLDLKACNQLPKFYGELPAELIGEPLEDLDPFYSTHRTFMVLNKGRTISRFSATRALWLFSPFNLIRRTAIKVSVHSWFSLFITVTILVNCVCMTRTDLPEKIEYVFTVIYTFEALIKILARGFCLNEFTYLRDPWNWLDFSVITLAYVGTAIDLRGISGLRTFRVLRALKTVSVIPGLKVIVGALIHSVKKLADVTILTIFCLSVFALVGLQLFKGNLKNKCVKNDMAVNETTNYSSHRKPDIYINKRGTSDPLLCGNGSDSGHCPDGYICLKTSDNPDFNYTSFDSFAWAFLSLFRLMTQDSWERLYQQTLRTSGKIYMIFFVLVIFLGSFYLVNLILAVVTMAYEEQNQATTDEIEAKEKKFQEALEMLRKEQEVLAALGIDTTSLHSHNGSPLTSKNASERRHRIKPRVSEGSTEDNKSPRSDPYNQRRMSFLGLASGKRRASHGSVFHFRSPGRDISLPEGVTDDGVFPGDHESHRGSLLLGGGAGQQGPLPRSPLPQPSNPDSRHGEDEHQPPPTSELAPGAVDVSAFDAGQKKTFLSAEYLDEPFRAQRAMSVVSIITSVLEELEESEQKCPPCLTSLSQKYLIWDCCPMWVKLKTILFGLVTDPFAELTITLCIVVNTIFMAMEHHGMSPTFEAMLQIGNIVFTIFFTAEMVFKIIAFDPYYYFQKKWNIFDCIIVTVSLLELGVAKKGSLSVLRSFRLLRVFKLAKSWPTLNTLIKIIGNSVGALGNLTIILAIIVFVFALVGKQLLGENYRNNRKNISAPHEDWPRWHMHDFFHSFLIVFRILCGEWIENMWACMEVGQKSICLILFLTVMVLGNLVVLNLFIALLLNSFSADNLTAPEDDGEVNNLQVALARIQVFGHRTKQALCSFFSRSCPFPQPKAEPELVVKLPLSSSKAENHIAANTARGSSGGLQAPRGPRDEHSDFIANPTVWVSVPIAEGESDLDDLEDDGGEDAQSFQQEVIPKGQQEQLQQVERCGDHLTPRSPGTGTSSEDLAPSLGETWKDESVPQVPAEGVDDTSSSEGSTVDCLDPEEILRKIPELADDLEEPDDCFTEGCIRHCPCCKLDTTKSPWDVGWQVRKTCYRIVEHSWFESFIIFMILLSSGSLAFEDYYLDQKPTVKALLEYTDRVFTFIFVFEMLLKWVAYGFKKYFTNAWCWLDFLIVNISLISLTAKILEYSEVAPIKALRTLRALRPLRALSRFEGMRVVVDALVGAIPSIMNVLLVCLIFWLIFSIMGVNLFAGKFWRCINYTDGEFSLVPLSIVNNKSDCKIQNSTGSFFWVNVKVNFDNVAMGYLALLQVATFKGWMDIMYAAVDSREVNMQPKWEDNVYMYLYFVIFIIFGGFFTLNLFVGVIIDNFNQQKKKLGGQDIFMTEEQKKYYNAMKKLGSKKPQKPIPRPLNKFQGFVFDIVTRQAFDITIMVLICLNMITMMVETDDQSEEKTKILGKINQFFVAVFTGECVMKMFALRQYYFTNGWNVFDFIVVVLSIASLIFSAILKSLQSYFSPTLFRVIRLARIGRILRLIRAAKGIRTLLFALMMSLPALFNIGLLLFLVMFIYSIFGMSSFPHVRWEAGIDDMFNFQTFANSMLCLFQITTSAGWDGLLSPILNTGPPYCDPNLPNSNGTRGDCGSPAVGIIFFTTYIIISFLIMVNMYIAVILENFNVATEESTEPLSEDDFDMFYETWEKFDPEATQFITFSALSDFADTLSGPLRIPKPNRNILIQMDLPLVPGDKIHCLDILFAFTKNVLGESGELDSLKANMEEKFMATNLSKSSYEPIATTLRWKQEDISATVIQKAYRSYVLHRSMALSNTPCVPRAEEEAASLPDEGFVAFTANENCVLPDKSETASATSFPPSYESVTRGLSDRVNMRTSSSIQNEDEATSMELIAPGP
T1 sequence (Q15858 whole entry): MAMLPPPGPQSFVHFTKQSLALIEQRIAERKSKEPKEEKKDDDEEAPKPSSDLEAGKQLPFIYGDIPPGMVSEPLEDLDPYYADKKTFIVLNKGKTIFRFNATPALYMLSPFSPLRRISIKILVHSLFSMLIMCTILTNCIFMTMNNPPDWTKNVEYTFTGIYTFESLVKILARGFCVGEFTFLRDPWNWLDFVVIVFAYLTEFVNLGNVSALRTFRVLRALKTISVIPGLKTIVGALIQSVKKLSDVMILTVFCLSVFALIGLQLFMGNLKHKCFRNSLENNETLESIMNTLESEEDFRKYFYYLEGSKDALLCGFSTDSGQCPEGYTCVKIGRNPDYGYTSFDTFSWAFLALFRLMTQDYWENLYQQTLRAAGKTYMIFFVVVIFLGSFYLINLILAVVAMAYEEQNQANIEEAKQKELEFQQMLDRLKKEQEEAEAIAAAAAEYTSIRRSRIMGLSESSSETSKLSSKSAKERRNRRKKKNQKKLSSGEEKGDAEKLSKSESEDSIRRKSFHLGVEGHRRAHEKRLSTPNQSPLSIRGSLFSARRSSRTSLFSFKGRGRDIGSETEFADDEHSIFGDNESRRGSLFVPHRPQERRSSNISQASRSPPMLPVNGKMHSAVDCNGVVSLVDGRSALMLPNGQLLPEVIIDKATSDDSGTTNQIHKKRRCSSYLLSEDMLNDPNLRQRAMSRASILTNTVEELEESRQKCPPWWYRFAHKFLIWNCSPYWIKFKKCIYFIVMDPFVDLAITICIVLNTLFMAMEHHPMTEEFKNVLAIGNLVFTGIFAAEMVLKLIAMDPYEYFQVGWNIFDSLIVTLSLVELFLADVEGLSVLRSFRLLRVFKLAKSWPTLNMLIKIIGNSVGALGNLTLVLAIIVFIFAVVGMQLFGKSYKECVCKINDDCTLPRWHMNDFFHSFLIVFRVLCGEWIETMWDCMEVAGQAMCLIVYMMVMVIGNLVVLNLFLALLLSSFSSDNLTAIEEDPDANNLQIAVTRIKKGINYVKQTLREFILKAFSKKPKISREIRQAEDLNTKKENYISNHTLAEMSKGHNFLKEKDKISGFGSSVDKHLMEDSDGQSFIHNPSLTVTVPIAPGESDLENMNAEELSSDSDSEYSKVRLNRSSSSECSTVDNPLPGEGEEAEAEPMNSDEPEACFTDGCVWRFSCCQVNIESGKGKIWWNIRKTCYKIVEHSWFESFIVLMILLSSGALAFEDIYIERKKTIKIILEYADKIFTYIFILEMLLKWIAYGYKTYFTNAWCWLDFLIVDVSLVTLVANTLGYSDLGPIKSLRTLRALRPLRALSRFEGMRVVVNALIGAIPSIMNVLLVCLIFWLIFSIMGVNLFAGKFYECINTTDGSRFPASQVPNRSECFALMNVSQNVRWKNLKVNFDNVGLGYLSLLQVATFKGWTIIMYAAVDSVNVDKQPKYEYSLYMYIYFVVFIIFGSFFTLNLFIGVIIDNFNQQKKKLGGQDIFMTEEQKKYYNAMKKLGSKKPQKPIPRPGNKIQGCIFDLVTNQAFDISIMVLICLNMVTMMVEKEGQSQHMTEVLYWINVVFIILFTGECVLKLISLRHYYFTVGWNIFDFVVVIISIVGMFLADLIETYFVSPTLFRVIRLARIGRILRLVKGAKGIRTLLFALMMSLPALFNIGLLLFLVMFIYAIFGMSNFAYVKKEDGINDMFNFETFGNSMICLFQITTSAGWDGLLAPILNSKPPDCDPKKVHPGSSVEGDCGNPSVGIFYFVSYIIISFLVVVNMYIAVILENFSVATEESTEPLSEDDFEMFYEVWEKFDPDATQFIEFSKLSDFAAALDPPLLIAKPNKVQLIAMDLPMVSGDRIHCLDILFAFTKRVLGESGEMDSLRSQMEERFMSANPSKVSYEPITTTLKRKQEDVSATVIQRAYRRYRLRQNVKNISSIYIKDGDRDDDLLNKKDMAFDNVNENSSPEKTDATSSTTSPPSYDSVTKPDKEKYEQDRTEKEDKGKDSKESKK

Row | SMILES | IC50 [1] [µM] | IC50 [2] [µM]
1 | [2H]C([2H])([2H])Oc1ccc(-c2cncc(C(=O)NCCc3ccccc3F)n2)cn1 [compound 89] | > 1 | < 0.5
2 | [2H]C([2H])([2H])Oc1ccc(-c2cncc(C(=O)NCCc3cc(OC)cnc3F)n2)cn1 [compound 90] | > 1 | > 1
3 | [2H]C([2H])([2H])Oc1cc(OC([2H])([2H])[2H])cc([C@H](O)CNC(=O)c2cncc(-c3ccc(OC(F)F)nc3)n2)c1 [compound 91] | > 1 | < 0.5
4 | [2H]C([2H])([2H])Oc1cc(OC([2H])([2H])[2H])cc([C@H](O)CNC(=O)c2cncc(-c3ccc(OC([2H])([2H])[2H])nc3)n2)c1 [compound 92] | > 1 | > 1
5 | [2H]C([2H])([2H])Oc1ccc(-c2cncc(C(=O)NC[C@@H](O)c3cc(OC)cc(OC)c3)n2)cc1 [compound 93] | > 1 | < 0.5
6 | [2H]C([2H])([2H])Oc1ccc(-c2cncc(C(=O)NCCc3cc(OC)cnc3F)n2)cc1 [compound 94] | > 1 | < 0.5
7 | [2H]C([2H])([2H])Oc1ccc(-c2cncc(C(=O)NCCc3cc(OC)cc(OC)c3)n2)cc1 [compound 95] | > 1 | < 0.5
8 | [2H]C([2H])([2H])Oc1cc(OC([2H])([2H])[2H])cc([C@H](O)CNC(=O)c2cncc(-c3ccc(OC(F)F)cc3)n2)c1 [compound 96] | > 1 | < 0.5
9 | CCOc1ccc(-c2cc(C(=O)NCCc3cc(OC)cnc3F)cnn2)cc1 [compound 100] | > 1 | > 1
10 | CCOc1ccc(-c2cnnc(C(=O)NCCc3cc(OC)cnc3F)c2)cc1 [compound 101] | > 1 | > 1
11 | CCOc1ccc(-c2cncc(C(=O)NCCc3cc(OC)cnc3F)c2)cc1 [compound 102] | > 1 | > 1
12 | CCOc1ccc(-c2cccc(C(=O)NCCc3cc(OC)cnc3F)n2)cc1 [compound 103] | > 1 | > 1
13 | CCOc1ccc(-c2cc(C(=O)NCCc3cc(OC)cnc3F)ccn2)cc1 [compound 104] | > 1 | > 1
14 | CCOc1ccc(-c2nccc(C(=O)NCCc3cc(OC)cnc3F)n2)cc1 [compound 106] | > 1 | > 1
15 | CCOc1ccc(-c2ccnc(C(=O)NCCc3cc(OC)cnc3F)n2)cc1 [compound 107] | > 1 | 0.5 to 1
16 | CCOc1ccc(-c2cccc(C(=O)NCCc3cc(OC)cnc3F)n2)cn1 [compound 108] | > 1 | > 1
17 | CCOc1ccc(-c2cc(C(=O)NCCc3cc(OC)cnc3F)ccn2)cn1 [compound 109] | > 1 | > 1
18 | CCOc1ccc(-c2nccc(C(=O)NCCc3cc(OC)cnc3F)n2)cn1 [compound 110] | > 1 | > 1
19 | CCOc1ccc(-c2cc(C(=O)NCCc3cc(OC)cnc3F)cnn2)cn1 [compound 111] | > 1 | > 1
20 | CCOc1ccc(-c2cnnc(C(=O)NCCc3cc(OC)cnc3F)c2)cn1 [compound 112] | > 1 | > 1
21 | CCOc1ccc(-c2cncc(C(=O)NCCc3cc(OC)cnc3F)c2)cn1 [compound 113] | > 1 | > 1
22 | CCOc1ccc(-c2ccnc(C(=O)NCCc3cc(OC)cnc3F)c2)cn1 [compound 114] | > 1 | > 1
23 | CCOc1ccc(-c2ccnc(C(=O)NCCc3cc(OC)cnc3F)n2)cn1 [compound 115] | > 1 | > 1

Further lines, results first:

Row | IC50 [1] [µM] | IC50 [2] [µM] | SMILES
24 | 0.5 to 1 | < 0.5 | CCOc1ccc(-c2cncc(C(=O)Nc3cc4c(OC)ccc(F)c4[nH]3)n2)cn1 [compound 74]
25 | > 1 | > 1 | CCOc1ccc(-c2cncc(C(=O)Nc3cc4c(OC)ccc(F)c4n3C)n2)cn1 [compound 75]
26 | > 1 | > 1 | CCOc1ccc(-c2cncc(C(=O)Nc3cc4c(F)ccc(OC)c4[nH]3)n2)cc1 [compound 76]
27 | > 1 | > 1 | CCOc1ccc(-c2cncc(C(=O)Nc3cc4c(OC)ccc(F)c4[nH]3)n2)cc1 [compound 77]
28 | > 1 | < 0.5 | CCOc1ccc(-c2cncc(C(=O)N[C@H]3CCc4c(OC)ccc(F)c4C3)n2)cn1 [compound 78]
29 | 0.5 to 1 | 0.5 to 1 | CCOc1ccc(-c2cncc(C(=O)N[C@@H]3CCc4c(OC)ccc(F)c4C3)n2)cn1 [compound 79]
30 | > 1 | < 0.5 | CCOc1ccc(-c2cncc(C(=O)NCc3ccc4ccc(OC)cn34)n2)cn1 [compound 80]
31 | > 1 | < 0.5 | CCOc1ccc(-c2cncc(C(=O)N[C@@H]3Cc4c(F)ccc(OC)c4C3)n2)cn1 [compound 81]
32 | > 1 | 0.5 to 1 | CCOc1ccc(-c2cncc(C(=O)N[C@H]3Cc4c(F)ccc(OC)c4C3)n2)cn1 [compound 82]
33 | > 1 | > 1 | CCOc1ccc(-c2cncc(C(=O)N[C@H]3Cc4c(OC)cnc(F)c4C3)n2)cn1 [compound 83]
34 | > 1 | < 0.5 | CCOc1ccc(-c2cncc(C(=O)N[C@@H]3Cc4c(OC)cnc(F)c4C3)n2)cn1 [compound 84]
35 | > 1 | > 1 | CCOc1ccc(-c2cncc(C(=O)NCc3ncc4ccc(OC)cn34)n2)cn1 [compound 85]
36 | > 1 | > 1 | CCOc1ccc(-c2cncc(C(=O)NCc3cnc4ccc(OC)cn34)n2)cn1 [compound 86]
37 | < 0.5 | > 1 | CCOc1ccc(-c2ccnc(C(=O)NCCc3cc(OC)cnc3F)c2)cc1 [compound 105]
